Experimental data: US12264156B2, “Compounds and pharmaceutical compositions thereof for the treatment of diseases” (GALAPAGOS NV, priority 2018, dated 2025)

Experiments:
[1] = test system: LPS-induced TNFα in monocyte-derived macrophages (MdM); assay: MdM assay: LPS-triggered TNFα (ELISA); assay type: cell-based, human; conditions: Homo sapiens, Macrophage, 20 h, monocyte-derived macrophages, LPS 200 ng/mL, supernatant after 20 h; read-out: TNFα EC50
Experimental: This assay evaluates illustrative compounds of the invention for their inhibition of LPS-induced TNFα and LPS triggered IL-10 secretion in monocyte-derived macrophages.
PBMCs are isolated from human blood samples (buffycoats). The buffy coat is aseptically transferred into a 50 mL Falcon tube, and diluted 1/2 in PBS. Falcon tubes are filled with 20 mL Lymphoprep™, on top of which 25 mL of the buffy coat is carefully added, tubes are centrifuged for 35 min at 400 g in temperature controlled centrifuge, without brake, at 25° C. PBMCs are aspirated from the white interface layer between sample and Lymphoprep™. PBMCs are washed five times in PBS.
PBMCs are centrifuged at 300×g for 10 min and resuspended at a density of 1.0*10^7 cells/80 μL Miltenyi buffer (PBS, pH 7.4, 1% FBS, 2 mM EDTA).
Starting from this point of the protocol all steps are performed on ice. 20 μL of CD14+ micro-beads are added per 1.0*10^7 cells, the tube is mixed and incubated for 15 min in the fridge at 4° C. Cell suspension volume is adjusted to total volume of 100 mL using Miltenyi buffer, mixed gently and subsequently centrifuged for 10 min at 300×g. Supernantant is discarded and cell pellet is resuspended in 12 mL of Miltenyi buffer.
Four LS columns are placed in the MACS Separator (magnet) from Miltenyi Biotec, and are prewet by rinsing with 3 mL of MACS buffer per column. Three mL of cell suspension is added onto the column (max 1*10^8 of labelled cells/column), and columns are subsequently washed 3 times with 3 mL of Miltenyi buffer.
The columns are removed from the magnets, and 5 mL of Miltenyi buffer are added to the column to flush out the CD14+ fraction by pushing the plunger into the column. The flushed fractions are collected in a fresh 50 mL Falcon and volume is adjusted to 30 mL using Miltenyi buffer, cells are centrifuged for 10 min at 300×g. The obtained cell pellet is resuspended in 10 mL RPMI w/o FBS, and cell density is determined using a hematologic analyser (Sysmex XS-500i).
On day 10, MdMs are triggered and compound is added.
A compound dilution plate is made in 100% DMSO by 3-fold dilution of 10 mM stock solution. An intermediate dilution plate (10× final concentration) is made by diluting the compound dilution plate 50-fold in RPMI medium.
Medium is carefully removed from cell plates using multichannel pipette, and replaced by 80 μL fresh medium. 10 μL of the 10× final concentration compound is added to the cells and incubated for 1 hour at 37° C. before addition of trigger. No trigger conditions/trigger conditions are spiked with equal final DMSO concentrations of 0.2% DMSO. 10 μL of 10×LPS (final conc. 200 ng/mL) solution are added to all wells except for the ‘no trigger wells’ where 10 μL medium is added. Supernatant is collected after 2 h (IL-10 determination) and after 20 h (TNFα determination) of LPS triggering.
The plate is then washed once with PBST (PBS+0.05% Tween20) and once with PBS followed by the addition of 100 μL of blocking buffer (1% Bovine Serum Albumin (BSA)−5% Sucrose) and plates are sealed and incubated for at least 4 h at RT. After washing the plate once with PBST and once with PBS, 40 μL of standard or sample are added (TNFα standard curve is prepared using a 1/2 serial dilution starting from […]; dilutions are made in dilution buffer (PBS+1% BSA)). Plates are washed twice with PBST, and once with PBS, after which 35 μL of the detection antibody is added (final concentration 0.25 μg/mL diluted in dilution buffer) and plates are incubated for at least 2 h at RT. Plates are washed twice with PBST, and once with PBS, where after 35 μL of Strep-HRP conjugate (0.5 μg/mL final concentration diluted in dilution buffer) is added. Plates are incubated in the dark, at RT for at least 45 min but no longer than 1 hour. Plates are washed twice with PBST, and once with PBS.

SIK2 = target: T1, SIK2 (Homo sapiens, UniProt Q9H0K1); assay: ADP-Glo kinase assay, SIK2; assay type: biochemical; conditions: ADP-Glo SIK kinase assay
T1 construct: purchased ThermoFisher Scientific PV4792
T1 sequence (Q9H0K1 whole entry): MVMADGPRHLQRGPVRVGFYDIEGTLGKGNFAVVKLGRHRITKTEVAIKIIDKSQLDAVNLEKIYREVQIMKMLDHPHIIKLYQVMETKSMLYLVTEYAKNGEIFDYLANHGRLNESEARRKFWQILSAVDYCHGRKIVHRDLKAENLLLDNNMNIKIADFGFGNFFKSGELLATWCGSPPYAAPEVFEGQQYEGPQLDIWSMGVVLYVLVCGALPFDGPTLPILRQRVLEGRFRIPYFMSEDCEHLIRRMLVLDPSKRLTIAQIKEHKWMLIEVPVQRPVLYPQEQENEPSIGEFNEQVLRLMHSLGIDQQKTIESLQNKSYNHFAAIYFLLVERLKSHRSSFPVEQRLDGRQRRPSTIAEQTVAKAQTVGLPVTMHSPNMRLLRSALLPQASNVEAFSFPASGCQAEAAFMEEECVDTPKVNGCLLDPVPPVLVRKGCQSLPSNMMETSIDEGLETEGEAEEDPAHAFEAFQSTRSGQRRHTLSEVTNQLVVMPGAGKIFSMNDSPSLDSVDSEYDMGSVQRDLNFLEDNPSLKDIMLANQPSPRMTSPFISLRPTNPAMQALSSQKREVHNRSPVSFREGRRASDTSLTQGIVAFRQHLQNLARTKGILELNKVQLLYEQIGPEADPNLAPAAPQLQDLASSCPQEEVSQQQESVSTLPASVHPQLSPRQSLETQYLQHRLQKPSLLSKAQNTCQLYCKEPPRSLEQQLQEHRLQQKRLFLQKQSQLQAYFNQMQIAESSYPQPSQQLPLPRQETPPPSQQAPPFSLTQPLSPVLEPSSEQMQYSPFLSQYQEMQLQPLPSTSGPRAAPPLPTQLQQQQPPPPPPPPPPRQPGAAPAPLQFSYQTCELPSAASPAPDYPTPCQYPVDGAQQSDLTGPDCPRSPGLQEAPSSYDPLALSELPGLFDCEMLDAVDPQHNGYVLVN
Summary of the method: (§1)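 ADP-Glo luminescent assay of ADP formed by SIK2 or SIK3 with substrate after ATP addition, 120 min at RT. Remaining ATP depleted 40 min, then ADP converted to ATP and read by luciferase luminescence after 30 min. Controls: 1% DMSO and 10 μM staurosporine (final).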

SIK1 = target: T2, SIK1 (Homo sapiens, UniProt P57059); assay: ADP-Glo kinase assay, SIK1; assay type: biochemical; conditions: ADP-Glo SIK kinase assay
T2 construct: purchased Carna Biosciences 02-131
T2 sequence (P57059 whole entry): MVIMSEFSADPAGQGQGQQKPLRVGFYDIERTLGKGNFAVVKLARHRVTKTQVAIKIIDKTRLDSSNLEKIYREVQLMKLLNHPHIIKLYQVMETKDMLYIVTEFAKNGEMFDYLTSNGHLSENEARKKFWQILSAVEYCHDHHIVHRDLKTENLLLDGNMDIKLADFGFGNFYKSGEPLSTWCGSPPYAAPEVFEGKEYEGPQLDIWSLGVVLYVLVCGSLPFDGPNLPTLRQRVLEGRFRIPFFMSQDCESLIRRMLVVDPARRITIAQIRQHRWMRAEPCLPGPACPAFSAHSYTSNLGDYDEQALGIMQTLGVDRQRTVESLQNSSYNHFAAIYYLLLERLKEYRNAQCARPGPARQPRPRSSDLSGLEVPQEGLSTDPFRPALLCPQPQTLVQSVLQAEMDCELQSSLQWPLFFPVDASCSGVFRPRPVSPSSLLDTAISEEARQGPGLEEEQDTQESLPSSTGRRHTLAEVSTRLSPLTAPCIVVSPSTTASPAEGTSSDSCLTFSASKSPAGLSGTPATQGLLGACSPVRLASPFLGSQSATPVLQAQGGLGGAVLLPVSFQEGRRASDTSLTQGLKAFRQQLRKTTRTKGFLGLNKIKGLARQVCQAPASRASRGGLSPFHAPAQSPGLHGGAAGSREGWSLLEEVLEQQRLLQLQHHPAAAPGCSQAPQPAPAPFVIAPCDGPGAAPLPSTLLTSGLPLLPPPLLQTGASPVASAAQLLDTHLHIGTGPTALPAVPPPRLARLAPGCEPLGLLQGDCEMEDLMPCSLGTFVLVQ
Summary of the method: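 ADP-Glo, RT throughout. Enz/substrate + ATP, 120 min; ADP-Glo reagent 40 min (ATP depletion); detection reagent 30 min; luminescence read. Neg ctrl 1% DMSO, pos ctrl 10 μM staurosporine, final concs.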

SIK3 = target: T3, SIK3 (Homo sapiens, UniProt Q9Y2K2); assay: ADP-Glo kinase assay, SIK3; assay type: biochemical; conditions: ADP-Glo SIK kinase assay
T3 construct: purchased SignalChem S12-11G-100
T3 sequence (Q9Y2K2 whole entry): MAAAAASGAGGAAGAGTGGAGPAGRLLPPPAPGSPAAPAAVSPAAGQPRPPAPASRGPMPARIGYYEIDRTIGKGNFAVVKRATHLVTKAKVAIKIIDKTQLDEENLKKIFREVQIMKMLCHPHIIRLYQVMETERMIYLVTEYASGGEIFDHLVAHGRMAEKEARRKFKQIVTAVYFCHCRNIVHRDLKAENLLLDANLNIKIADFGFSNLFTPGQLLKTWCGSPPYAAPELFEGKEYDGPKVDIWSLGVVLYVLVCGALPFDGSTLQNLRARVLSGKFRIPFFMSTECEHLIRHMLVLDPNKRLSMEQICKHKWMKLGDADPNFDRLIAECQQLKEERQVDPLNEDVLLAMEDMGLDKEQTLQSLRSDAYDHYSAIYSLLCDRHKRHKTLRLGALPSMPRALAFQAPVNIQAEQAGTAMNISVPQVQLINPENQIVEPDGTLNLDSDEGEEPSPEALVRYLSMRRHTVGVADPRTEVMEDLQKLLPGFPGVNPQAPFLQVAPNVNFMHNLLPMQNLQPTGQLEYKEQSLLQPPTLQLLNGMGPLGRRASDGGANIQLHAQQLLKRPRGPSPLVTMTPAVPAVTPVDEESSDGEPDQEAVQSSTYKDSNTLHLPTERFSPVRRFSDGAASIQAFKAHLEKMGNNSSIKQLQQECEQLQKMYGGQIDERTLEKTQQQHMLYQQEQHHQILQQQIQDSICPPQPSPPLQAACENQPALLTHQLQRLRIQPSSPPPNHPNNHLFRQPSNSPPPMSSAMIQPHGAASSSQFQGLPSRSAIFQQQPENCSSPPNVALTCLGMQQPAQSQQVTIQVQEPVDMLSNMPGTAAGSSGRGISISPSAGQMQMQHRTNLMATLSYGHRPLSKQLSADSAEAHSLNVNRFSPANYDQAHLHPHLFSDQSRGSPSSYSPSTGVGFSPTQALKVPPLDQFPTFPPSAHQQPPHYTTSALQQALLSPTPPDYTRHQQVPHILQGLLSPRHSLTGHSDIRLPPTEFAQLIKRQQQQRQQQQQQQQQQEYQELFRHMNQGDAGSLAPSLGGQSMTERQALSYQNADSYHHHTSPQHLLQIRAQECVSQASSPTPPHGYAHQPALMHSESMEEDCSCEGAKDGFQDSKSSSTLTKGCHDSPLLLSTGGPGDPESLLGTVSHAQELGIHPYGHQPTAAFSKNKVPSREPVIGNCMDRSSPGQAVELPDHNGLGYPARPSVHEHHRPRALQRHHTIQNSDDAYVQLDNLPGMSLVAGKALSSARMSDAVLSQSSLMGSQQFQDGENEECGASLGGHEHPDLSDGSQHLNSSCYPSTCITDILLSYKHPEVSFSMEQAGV
Summary of the method: as §1

COc1cc(-c2cnc3cc(OC[C@@H]4CC(F)(F)CN4C)ccn23)cc(OC(F)F)c1C(=O)NC1CC1 [Cpd 189, N-cyclopropyl-2-(difluoromethoxy)-4-[7-[[(2S)-4,4-difluoro-1-methyl-pyrrolidin-2-yl]methoxy]imidazo[1,2-a]pyridin-3-yl]-6-methoxy-benzamide]
EC50 [1]: 100 to 1000 nM
IC50 (SIK2): 0.01 to 10 nM
IC50 (SIK1): 10 to 100 nM
IC50 (SIK3): 0.01 to 10 nM

COc1cc(-c2cnc3cc(OC[C@@H]4CCCN4C)ccn23)cc(OC(F)F)c1C(=O)NC1CC1 [compound 79, N-cyclopropyl-2-(difluoromethoxy)-6-methoxy-4-[7-[[(2S)-1-methylpyrrolidin-2-yl]methoxy]imidazo[1,2-a]pyridin-3-yl]benzamide]
EC50 [1]: 100 to 1000 nM
IC50 (SIK2): 0.01 to 10 nM
IC50 (SIK1): 10 to 100 nM
IC50 (SIK3): 0.01 to 10 nM

COc1cc(-c2cnc3cc(OCCN(C(C)C)C(C)C)ccn23)cc(OC(F)F)c1C(=O)NC1CC1 [compound 78, N-cyclopropyl-2-(difluoromethoxy)-4-[7-[2-(diisopropylamino)ethoxy]imidazo[1,2-a]pyridin-3-yl]-6-methoxy-benzamide]
EC50 [1]: 100 to 1000 nM
IC50 (SIK2): 0.01 to 10 nM
IC50 (SIK1): 100 to 500 nM
IC50 (SIK3): 0.01 to 10 nM

COc1cc(-c2cnc3cc(OCCCN4CCOCC4)ccn23)cc2c1C(=O)N(CC(F)(F)F)CC2 [compound 55, 8-methoxy-6-[7-(3-morpholinopropoxy)imidazo[1,2-a]pyridin-3-yl]-2-(2,2,2-trifluoroethyl)-3,4-dihydro isoquinolin-1-one]
EC50 [1]: 100 to 1000 nM
IC50 (SIK2): 0.01 to 10 nM
IC50 (SIK1): 100 to 500 nM
IC50 (SIK3): 0.01 to 10 nM

COc1cc(-c2cnc3cc(OCCN4CCOCC4)ccn23)cc(OC(F)F)c1C(=O)NCC(F)(F)F [compound 230, 2-(difluoromethoxy)-6-methoxy-4-[7-(2-morpholinoethoxy)imidazo [1,2-a]pyridin-3-yl]-N-(2,2,2-trifluoroethyl)benzamide]
EC50 [1]: 100 to 1000 nM
IC50 (SIK2): 0.01 to 10 nM
IC50 (SIK1): 10 to 100 nM
IC50 (SIK3): 0.01 to 10 nM

COc1cc(-c2cnc3cc(OCCN4CCOCC4)ccn23)cc2c1C(=O)NCC2 [Cpd 217, 8-methoxy-6-[7-(2-morpholinoethoxy)imidazo [1,2-a]pyridin-3-yl]-3,4-dihydro-2H-isoquinolin-1-one]
EC50 [1]: 100 to 1000 nM
IC50 (SIK2): 0.01 to 10 nM
IC50 (SIK1): 10 to 100 nM
IC50 (SIK3): 0.01 to 10 nM

COc1cc(-c2cnc3cc(OCCCN4CCOCC4)ccn23)cc(OC(F)F)c1C(=O)NC1CC1 [compound 21, N-cyclopropyl-2-(difluoromethoxy)-6-methoxy-4-[7-(3-morpholinopropoxy)imidazo[1,2-a]pyridin-3-yl]benzamide]
EC50 [1]: 0.1 to 100 nM
IC50 (SIK2): 0.01 to 10 nM
IC50 (SIK1): 10 to 100 nM
IC50 (SIK3): 0.01 to 10 nM

COc1cc(-c2cnc3cc(OCC4CCO4)ccn23)cc(OC(F)F)c1C(=O)NC1CC1 (centres unmarked) [compound 35, N-cyclopropyl-2-(difluoromethoxy)-6-methoxy-4-[7-(oxetan-2-ylmethoxy)imidazo[1,2-a]pyridin-3-yl]benzamide]
EC50 [1]: 100 to 1000 nM
IC50 (SIK2): 0.01 to 10 nM
IC50 (SIK1): 10 to 100 nM
IC50 (SIK3): 0.01 to 10 nM

COc1cc(-c2cnc3cc(OCC4CCCCO4)ccn23)cc(OC(F)F)c1C(=O)NC1CC1 (centres unmarked) [compound 48, N-cyclopropyl-2-(difluoromethoxy)-6-methoxy-4-[7-(tetrahydropyran-2-ylmethoxy)imidazo[1,2-a]pyridin-3-yl] benzamide]
EC50 [1]: 0.1 to 100 nM
IC50 (SIK2): 0.01 to 10 nM
IC50 (SIK1): 10 to 100 nM
IC50 (SIK3): 0.01 to 10 nM

COc1cc(-c2cnc3cc(OCc4ccnn4C)ccn23)cc2c1C(=O)N(CC(F)(F)F)CC2 [compound 84, 8-methoxy-6-[7-[(2-methylpyrazol-3-yl)methoxy]imidazo[1,2-a]pyridin-3-yl]-2-(2,2,2-trifluoroethyl)-3,4-dihydroisoquinolin-1-one]
EC50 [1]: 100 to 1000 nM
IC50 (SIK2): 10 to 100 nM
IC50 (SIK1): 100 to 500 nM
IC50 (SIK3): 0.01 to 10 nM

COc1cc(-c2cnc3cc(OCC(C)N)ccn23)cc(OC(F)F)c1C(=O)NC1CC1 (centres unmarked) [compound 138, 4-[7-(2-aminopropoxy)imidazo [1,2-a]pyridin-3-yl]-N-cyclopropyl-2-(difluoromethoxy)-6-methoxy-benzamide]
EC50 [1]: 1000 to 5000 nM
IC50 (SIK2): 0.01 to 10 nM
IC50 (SIK1): 10 to 100 nM
IC50 (SIK3): 0.01 to 10 nM

COc1cc(-c2cnc3cc(OCCN(C)C)ccn23)cc2c1C(=O)N(CC#N)CC2 [compound 67, 2-[6-[7-[2-(dimethylamino)ethoxy]imidazo[1,2-a]pyridin-3-yl]-8-methoxy-1-oxo-3,4-dihydroisoquinolin-2-yl]acetonitrile]
EC50 [1]: 1000 to 5000 nM
IC50 (SIK2): 0.01 to 10 nM
IC50 (SIK1): > 500 nM
IC50 (SIK3): 0.01 to 10 nM

COc1cc(-c2cnc3cc(OCC4(C)CCCCN4)ccn23)cc(OC(F)F)c1C(=O)NC1CC1 (centres unmarked) [compound 172, N-cyclopropyl-2-(difluoromethoxy)-6-methoxy-4-[7-[(2-methyl-2-piperidyl)methoxy]imidazo[1,2-a]pyridin-3-yl]benzamide]
EC50 [1]: 1000 to 5000 nM
IC50 (SIK2): 0.01 to 10 nM
IC50 (SIK1): 100 to 500 nM
IC50 (SIK3): 0.01 to 10 nM

CNc1cc(-c2cnc3cc(OCCN(C)C)ccn23)cc(OC(F)F)c1C(=O)NC1CC1 [compound 147, N-cyclopropyl-2-(difluoromethoxy)-4-[7-[2-(dimethylamino)ethoxy]imidazo[1,2-a]pyridin-3-yl]-6-(methylamino)benzamide]
EC50 [1]: 100 to 1000 nM
IC50 (SIK2): 0.01 to 10 nM
IC50 (SIK1): 10 to 100 nM
IC50 (SIK3): 0.01 to 10 nM

COc1cc(-c2cnc3cc(OCCN4CC[C@H](F)C4)ccn23)cc(OC(F)F)c1C(=O)NC1CC1 [Cpd 160, N-cyclopropyl-2-(difluoromethoxy)-4-[7-[2-[(3S)-3-fluoropyrrolidin-1-yl]ethoxy]imidazo[1,2-a]pyridin-3-yl]-6-methoxy-benzamide]
EC50 [1]: 100 to 1000 nM
IC50 (SIK2): 0.01 to 10 nM
IC50 (SIK1): 10 to 100 nM
IC50 (SIK3): 0.01 to 10 nM

O=C1c2c(cc(-c3cnc4cc(OCCN5CCOCC5)ccn34)cc2OC(F)F)CCN1C1CC1 [Cpd 224, 2-cyclopropyl-8-(difluoromethoxy)-6-[7-(2-morpholinoethoxy)imidazo [1,2-a]pyridin-3-yl]-3,4-dihydroisoquinolin-1-one]
EC50 [1]: 100 to 1000 nM
IC50 (SIK2): 0.01 to 10 nM
IC50 (SIK1): 100 to 500 nM
IC50 (SIK3): 0.01 to 10 nM

COc1cc(-c2cnc3cc(OCc4cnco4)ccn23)cc(OC(F)F)c1C(=O)NC1CC1 [compound 33, N-cyclopropyl-2-(difluoromethoxy)-6-methoxy-4-[7-(oxazol-5-ylmethoxy)imidazo[1,2-a]pyridin-3-yl]benzamide]
EC50 [1]: 0.1 to 100 nM
IC50 (SIK2): 0.01 to 10 nM
IC50 (SIK1): 10 to 100 nM
IC50 (SIK3): 0.01 to 10 nM
